Test system: wheat rust fungus (Puccinia recondita)
Test: Test Example 2: wheat rust, foliar spray before inoculation, lesion area
Type: in vivo
Conditions: 200 ppm foliar spray, wheat (Shirogane), inoculated 5 days after spraying, formulation per Formulation Example 6

COC(=O)Nc1ccccc1COc1ccc(-c2ccccn2)cc1 [methyl N-(2-{[4-(pyridine-2-yl)phenoxy)methyl}phenyl)carbamate]
area of the lesion relative to untreated wheat: ≥ 70%

From patent publication US10385021B2, “Carbamate compound and use thereof” (SUMITOMO CHEMICAL COMPANY, LIMITED, priority 2015, dated 2019)
